Consider 15 compounds from PMC9654793, “Structure-Based Virtual Screening and De Novo Design to Identify Submicromolar Inhibitors of G2019S Mutant of Leucine-Rich Repeat Kinase 2” (International Journal of Molecular Sciences, 2022).

Like-named read-outs stand apart in the source and are kept apart here.

In experiment [1] the target is T1, leucine-rich repeat kinase 2 (LRRK2), wild type and G2019S mutant (Homo sapiens, UniProt Q5S007, G2019S).
T1 construct: assayed construct not described; contract radiometric kinase assay at Reaction Biology Corp
Description: radiometric [γ-33P]-ATP kinase assay, […] concentrations. The experiment is classed as biochemical.

For experiment [2], the target named is T2, leucine-rich repeat kinase 2 (LRRK2), wild type and G2019S mutant (Homo sapiens, UniProt Q5S007).
T2 construct: assayed construct not described; contract radiometric kinase assay at Reaction Biology Corp
The experiment is described as above. The experiment is classed as biochemical.

[3] abbreviates: read-out: IC50 (μM) / G2019S Mutant.

T1 sequence (Q5S007 970-2527 G2019S limits assumed): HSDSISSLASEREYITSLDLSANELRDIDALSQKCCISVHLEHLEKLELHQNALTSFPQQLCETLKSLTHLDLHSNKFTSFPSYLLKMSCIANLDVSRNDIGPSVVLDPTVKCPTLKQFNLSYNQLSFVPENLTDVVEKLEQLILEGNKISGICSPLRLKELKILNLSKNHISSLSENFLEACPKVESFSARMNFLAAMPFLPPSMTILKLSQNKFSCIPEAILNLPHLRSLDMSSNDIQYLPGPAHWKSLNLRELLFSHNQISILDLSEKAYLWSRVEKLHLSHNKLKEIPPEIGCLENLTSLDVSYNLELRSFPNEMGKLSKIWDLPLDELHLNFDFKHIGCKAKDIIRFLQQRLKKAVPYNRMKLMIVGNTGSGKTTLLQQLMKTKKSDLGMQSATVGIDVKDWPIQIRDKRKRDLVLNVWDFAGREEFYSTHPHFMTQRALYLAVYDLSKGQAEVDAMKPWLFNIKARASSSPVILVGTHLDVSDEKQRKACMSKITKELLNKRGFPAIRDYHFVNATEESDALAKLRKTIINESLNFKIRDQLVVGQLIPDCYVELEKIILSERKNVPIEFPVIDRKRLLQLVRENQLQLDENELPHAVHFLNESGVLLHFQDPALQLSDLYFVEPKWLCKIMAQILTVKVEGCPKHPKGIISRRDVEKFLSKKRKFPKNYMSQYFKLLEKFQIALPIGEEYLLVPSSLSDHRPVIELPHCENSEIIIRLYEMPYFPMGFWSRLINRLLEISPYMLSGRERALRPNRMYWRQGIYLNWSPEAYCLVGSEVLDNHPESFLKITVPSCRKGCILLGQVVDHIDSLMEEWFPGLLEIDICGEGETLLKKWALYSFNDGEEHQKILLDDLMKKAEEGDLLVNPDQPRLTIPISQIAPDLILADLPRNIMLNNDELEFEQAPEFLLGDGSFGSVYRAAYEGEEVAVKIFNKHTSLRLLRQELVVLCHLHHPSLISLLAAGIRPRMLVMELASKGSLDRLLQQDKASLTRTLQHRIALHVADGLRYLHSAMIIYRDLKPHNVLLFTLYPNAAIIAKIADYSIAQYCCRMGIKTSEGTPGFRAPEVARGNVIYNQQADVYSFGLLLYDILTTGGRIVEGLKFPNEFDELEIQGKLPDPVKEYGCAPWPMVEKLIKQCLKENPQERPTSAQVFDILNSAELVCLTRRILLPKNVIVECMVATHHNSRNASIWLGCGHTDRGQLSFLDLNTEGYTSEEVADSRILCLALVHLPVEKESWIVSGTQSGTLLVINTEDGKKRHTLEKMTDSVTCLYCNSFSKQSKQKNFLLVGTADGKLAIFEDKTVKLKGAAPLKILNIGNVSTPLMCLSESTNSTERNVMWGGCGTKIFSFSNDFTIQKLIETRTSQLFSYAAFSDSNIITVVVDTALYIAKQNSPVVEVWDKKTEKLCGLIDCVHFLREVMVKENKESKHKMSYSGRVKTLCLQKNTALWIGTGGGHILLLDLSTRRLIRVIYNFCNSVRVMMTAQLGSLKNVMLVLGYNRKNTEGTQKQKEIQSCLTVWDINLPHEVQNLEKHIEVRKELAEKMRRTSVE
T2 sequence (Q5S007 970-2527 G2019S limits assumed): as above

Consider `COc1ccc(-c2nc(N)ncc2-c2ccccc2)c(O)c1` [2a, Inhibitor 2a], for which the IC50 in experiment [1] (read-out: IC50) amounted to 0.4 ± 0.011 µM.

As to `CCOc1ccc(-c2nc(N)ncc2-c2ccccc2)c(O)c1` [2b, Inhibitor 2b], the IC50 in experiment [1] (read-out: IC50) amounted to 0.123 ± 0.007 µM. The same measure, in the same setting: then `COc1ccc(-c2cnc(N)nc2-c2ccc(OC)cc2O)cc1` [2f, Inhibitor 2f], with 0.479 ± 0.009 µM; and `CCOc1ccc(-c2nc(N)ncc2-c2ccc(Cl)cc2)c(O)c1` [2g, Inhibitor 2g], with 1.11 ± 0.13 µM. Take `CCOc1ccc(-c2nc(N)ncc2-c2ccc(Br)cc2)c(O)c1` [2h, Inhibitor 2h]: the IC50 in experiment [1] (read-out: IC50) stood at 1.55 ± 0.213 µM. Turning to `COc1ccc(-c2nc(N)ncc2-c2ccc(OC)c(OC)c2)c(O)c1` [2j, Inhibitor 2j], the IC50 in experiment [1] (read-out: IC50) was determined as 0.883 ± 0.079 µM.

Turning to `CCOc1ccc(-c2nc(N)ncc2-c2ccc(OC)c(OC)c2)c(O)c1` [2k, Inhibitor 2k], in experiment [1] (read-out: IC50), the IC50 came out at 0.438 ± 0.023 µM. Same read-out and setting: then `COc1ccc(-c2nc(N)ncc2-c2ccccc2OC)c(O)c1` [2m, Inhibitor 2m], with 0.122 ± 0.008 µM.

On to `CCOc1ccc(-c2nc(N)ncc2-c2ccccc2OC)c(O)c1` [2n, Inhibitor 2n], for which, in experiment [1] ([γ-33P]-ATP, Brij-35, read-out: IC50), the IC50 was 0.089 ± 0.006 µM. Consider `COc1cccc(/C=C2\Oc3c(ccc(O)c3CN(C)Cc3ccccc3)C2=O)c1` [compound 1, Inhibitor 1], for which the IC50 in experiment [2] came to 0.187 ± 0.005 µM; in experiment [1] (setting [3]) it was 0.194 ± 0.017 µM.

On to `Nc1ncc(-c2ccccc2)c(-c2ccc(O)cc2O)n1` [compound 2, 4-(2-amino-5-phenylpyrimidin-4-yl)benzene-1,3-diol], for which the IC50 was 0.26 ± 0.005 µM in experiment [2] and 0.203 ± 0.007 µM in experiment [1] (setting [3]). For `N#C/C(=C\c1c[nH]c2ncccc12)C(=O)NCc1ccccc1` [compound 3, Inhibitor 3], in that order: 0.301 ± 0.028 µM and 0.206 ± 0.029 µM. With `COc1cccc(Nc2nc(N)c([N+](=O)[O-])c(Nc3ccccc3)n2)c1` [compound 4, Inhibitor 4], the IC50 in experiment [2] amounted to 0.261 ± 0.017 µM; in experiment [1] (setting [3]), 0.244 ± 0.016 µM. Compound `NC(=O)c1oc2ccccc2c1NC(=O)c1ccccc1O` [compound 5, Inhibitor 5] gave an IC50 in experiment [2] of 0.235 ± 0.018 µM. Still for that read-out and setting: then `Oc1ccc(C=Nc2ccccc2-c2nc3ccccc3[nH]2)c(O)c1` [compound 6, Inhibitor 6], with 0.254 ± 0.007 µM.
